Assays:
Format in all cases: biochemical
[1] = molecular target: Cathepsin S (Homo sapiens, UniProt P25774); test: Cathepsin S inhibition, fluorogenic peptide substrate kinetic assay; settings: Cathepsin S inhibition constant; read-out: Ki Cat. S
Method: (§1) The optimal substrate for cathepsin S, acetyl-histidine-proline-valine-lysine-amino carbamoyl coumarin, was identified from screening a combinatorial library of fluorogenic peptide substrates (Harris, J. L., B. J. Backes, et al. Proc Natl Acad Sci USA 2000, 97(14), 7754-9). Kinetic measurements are performed in a total reaction volume of 30 μl in 384-well microtiter plates. […] Control reactions in the absence of inhibitor are performed in replicates of 24. The reactions are initiated by adding the substrate, acetyl-histidine-proline-valine-lysine-amino carbamoyl coumarin, to a final concentration of 50 μM. The rate of substrate hydrolysis is measured by monitoring the increase in fluorescence at an excitation wavelength of 380 nm and an emission wavelength of 450 nm that results from cleavage of the aniline bond in the substrate by the enzyme. The apparent inhibition constants for the compounds are determined from the enzyme progress curves (Kuzmic, P., K. C. Elrod, et al. Anal Biochem 2000, 286(1), 45-50) and are then used to calculate the inhibition constants for competitive inhibitors.

[2] = molecular target: Cathepsin L (Homo sapiens, UniProt P07711); test: Cathepsin L inhibition, fluorogenic peptide substrate kinetic assay (selectivity ratio vs cathepsin S); settings: ratio of cathepsin L inhibition constant to cathepsin S inhibition constant
Method: as §1, with “cathepsin L, acetyl-histidine-lysine-phenylalanine-lysine-amino” for “cathepsin S, acetyl-histidine-proline-valine-lysine-amino”, “substrate, acetyl-histidine-lysine-phenylalanine-lysine-amino” for “substrate, acetyl-histidine-proline-valine-lysine-amino”, “of 20” for “of 50”, “curves ([…].” for “curves (Kuzmic, P., K. C.”, “inhibitors. Selectivity for cathepsin S in the presence of cathepsin isozymes was determined by the ratio of the cathepsin isozyme inhibition constant of a compound of the present invention to the cathepsin S inhibition constant of the same compound.” for “inhibitors.”

[3] = molecular target: Cathepsin B (Homo sapiens, UniProt P07858); test: Cathepsin B inhibition, fluorogenic peptide substrate kinetic assay (selectivity ratio vs cathepsin S); settings: ratio of cathepsin B inhibition constant to cathepsin S inhibition constant
Method: (§2) Kinetic measurements are performed in a total reaction volume of 30 μl in 384-well microtiter plates. […] Control reactions in the absence of inhibitor are performed in replicates of 24. The reactions are initiated by adding the substrate, acetyl-histidine-proline-valine-lysine-amino carbamoyl coumarin, to a final concentration of 10 μM. The rate of substrate hydrolysis is measured by monitoring the increase in fluorescence at an excitation wavelength of 380 nm and an emission wavelength of 450 nm that results from cleavage of the aniline bond in the substrate by the enzyme. The apparent inhibition constants for the compounds are determined from the enzyme progress curves ([…]. Elrod, et al. Anal Biochem 2000, 286(1), 45-50) and are then used to calculate the inhibition constants for competitive inhibitors. Selectivity for cathepsin S in the presence of cathepsin isozymes was determined by the ratio of the cathepsin isozyme inhibition constant of a compound of the present invention to the cathepsin S inhibition constant of the same compound.

[4] = molecular target: T1, Cathepsin K (Homo sapiens, UniProt P43235); test: Cathepsin K inhibition, fluorogenic peptide substrate kinetic assay (selectivity ratio vs cathepsin S); settings: ratio of cathepsin K inhibition constant to cathepsin S inhibition constant
T1 sequence (P43235 115-329): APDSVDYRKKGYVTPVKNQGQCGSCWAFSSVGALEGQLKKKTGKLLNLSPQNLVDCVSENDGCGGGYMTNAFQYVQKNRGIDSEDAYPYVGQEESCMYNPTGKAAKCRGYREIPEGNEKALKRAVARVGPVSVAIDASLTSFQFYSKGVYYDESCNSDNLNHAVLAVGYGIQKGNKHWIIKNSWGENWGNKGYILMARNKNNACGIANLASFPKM
Method: as §2, with “acetyl-lysine-histidine-proline-lysine-amino” for “acetyl-histidine-proline-valine-lysine-amino”, “40” for “10”

Chain of Cathepsin S (P25774 115-331, species assumed): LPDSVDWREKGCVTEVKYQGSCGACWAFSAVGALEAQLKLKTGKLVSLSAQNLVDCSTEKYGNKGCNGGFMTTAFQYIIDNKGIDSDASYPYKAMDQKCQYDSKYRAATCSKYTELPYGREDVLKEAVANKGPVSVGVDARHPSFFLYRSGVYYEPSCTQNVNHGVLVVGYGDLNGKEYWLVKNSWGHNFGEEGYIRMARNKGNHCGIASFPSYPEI
Chain of Cathepsin L (P07711 114-333, species assumed): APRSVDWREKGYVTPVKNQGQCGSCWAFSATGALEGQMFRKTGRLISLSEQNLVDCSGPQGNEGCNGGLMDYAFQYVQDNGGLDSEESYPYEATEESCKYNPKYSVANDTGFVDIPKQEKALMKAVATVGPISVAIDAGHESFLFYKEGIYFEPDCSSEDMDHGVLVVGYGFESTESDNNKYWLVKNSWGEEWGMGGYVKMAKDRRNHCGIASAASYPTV

Row | Ki [1] | Selectivity for Cat. S over Cat. L [2] | Selectivity for Cat. S over Cat. B [3] | Selectivity for Cat. S over Cat. K [4] | Structure (SMILES)
1 | < 100 nM | – | – | – | C[C@@H](CN1CCc2cc(F)ccc21)NC(=O)[C@H](CC1CCCCC1)Nc1nc2ccc(Cl)cc2s1 [Example 34, 2-(S)-(6-Chloro-benzothiazol-2-ylamino)-3-cyclohexyl-N-[2-(5-fluoro-2,3-dihydro-indol-1-yl)-1-(S)-methyl-ethyl]-propionamide]
2 | < 100 nM | – | – | – | C[C@@H](CNc1ccc(OC(F)(F)F)cc1)NC(=O)[C@H](CC1CCCC1)Nc1nc2cccc(Cl)c2o1 [Example 39, 2-(S)-(7-Chloro-benzooxazol-2-ylamino)-3-cyclopentyl-N-[1-(S)-methyl-2-(4-trifluoromethoxy-phenylamino)-ethyl]-propionamide]
3 | < 100 nM | ++ (++, >100) | +++ (+++, >1000) | +++ (+++, >1000) | CCOC(=O)C[C@@H](CN1CCc2cc(F)ccc21)NC(=O)[C@H](CC1CCCCC1)Nc1nc2ccc(Cl)cc2s1 [Example 30, 3-(S)-[2-(S)-(6-Chloro-benzothiazol-2-ylamino)-3-cyclohexyl-propionylamino]-4-(5-fluoro-2,3-dihydro-indol-1-yl)-butyric acid ethyl ester]
4 | < 100 nM | – | – | – | C[C@@H](CNc1ccc(OC(F)(F)F)cc1)NC(=O)[C@H](CC1CC1)Nc1nc2cccc(Cl)c2o1 [Example 43, 2-(S)-(7-Chloro-benzooxazol-2-ylamino)-3-cyclopropyl-N-[1-(S)-methyl-2-(4-trifluoromethoxy-phenylamino)-ethyl]-propionamide]
5 | < 10000 nM | – | – | – | Cc1cc(NC[C@H](C)NC(=O)[C@H](CC2CCCCC2)Nc2nc3cccc(Cl)c3o2)no1 [Example 25, 2-(S)-(7-Chloro-benzooxazol-2-ylamino)-3-cyclohexyl-N-[1-(S)-methyl-2-(5-methyl-isoxazol-3-ylamino)-ethyl]-propionamide]
6 | < 100 nM | – | – | – | C[C@@H](CNc1ccc(OC(F)(F)F)cc1)NC(=O)[C@H](CC(C)(C)C)Nc1nc2cccc(Cl)c2o1 [Example 41, 2-(S)-(7-Chloro-benzooxazol-2-ylamino)-4,4-dimethyl-pentanoic acid [1-(S)-methyl-2-(4-trifluoromethoxy-phenylamino)-ethyl]-amide]
7 | < 100 nM | – | – | – | O=C(O)C[C@@H](CN1CCc2cc(F)ccc21)NC(=O)[C@H](CC1CCCCC1)Nc1nc2ccc(Cl)cc2s1 [Example 29, 3-(S)-[2-(S)-(6-Chloro-benzothiazol-2-ylamino)-3-cyclohexyl-propionylamino]-4-(5-fluoro-2,3-dihydro-indol-1-yl)-butyric acid]

Second part, the compound before the results:

Row | Structure (SMILES) | Ki [1] | Selectivity for Cat. S over Cat. L [2] | Selectivity for Cat. S over Cat. B [3] | Selectivity for Cat. S over Cat. K [4]
8 | CC(C)(C)C[C@H](Nc1cnccn1)C(=O)NCCN1CCc2cc(F)ccc21 [Example 18, (S)-4,4-Dimethyl-2-(pyrazin-2-ylamino)-pentanoic acid [2-(5-fluoro-2,3-dihydro-indol-1-yl)-ethyl]-amide] | < 10000 nM | + (+, >10) | + (+, >10) | + (+, >10)
9 | CC(C)(C)C[C@H](Nc1nc2ccccc2o1)C(=O)N[C@@H](CC(=O)OC(C)(C)C)CN1CCc2cc(F)ccc21 [Example 3, 3-(S)-[2-(S)-(Benzooxazol-2-ylamino)-4,4-dimethyl-pentanoylamino]-4-(5-fluoro-2,3-dihydro-indol-1-yl)-butyric acid tert-butyl ester] | < 1000 nM | ++ (++, >100) | ++ (++, >100) | ++ (++, >100)
10 | O=C(NCCN1CCc2cc(F)ccc21)[C@H](CC1CCCCC1)Nc1nc2ccccc2s1 [Example 16, 2-(S)-(Benzothiazol-2-ylamino)-3-cyclohexyl-N-[2-(5-fluoro-2,3-dihydro-indol-1-yl)-ethyl]-propionamide] | < 1000 nM | + (+, >10) | ++ (++, >100) | ++ (++, >100)
11 | CC(C)(C)C[C@H](Nc1nc2ccccc2o1)C(=O)N[C@H](CN1CCc2cc(F)ccc21)CS(C)(=O)=O [Example 12, (S)-2-(Benzooxazol-2-ylamino)-4,4-dimethyl-pentanoic acid (R)-[2-(5-fluoro-2,3-dihydro-indol-1-yl)-1-methanesulfonylmethyl-ethyl]-amide] | < 100 nM | +++ (+++, >1000) | +++ (+++, >1000) | ++ (++, >100)
12 | COc1ccc(NCCNC(=O)[C@H](CC2CCCCC2)Nc2nc3ccccc3s2)cc1 [Example 17, 2-(S)-(Benzothiazol-2-ylamino)-3-cyclohexyl-N-[2-(4-methoxy-phenylamino)-ethyl]-propionamide] | < 100 nM | ++ (++, >100) | +++ (+++, >1000) | +++ (+++, >1000)
13 | CC(C)(C)C[C@H](Nc1nc2ccccc2o1)C(=O)N[C@@H](CO)CN1CCc2cc(F)ccc21 [Example 7, 2-(S)-(Benzooxazol-2-ylamino)-4,4-dimethyl-pentanoic acid [2-(5-fluoro-2,3-dihydro-indol-1-yl)-1-(R)-hydroxymethyl-ethyl]-amide] | < 100 nM | +++ (+++, >1000) | +++ (+++, >1000) | + (+, >10)
14 | O=C(NCCNc1ccc(F)cc1)[C@H](CC1CCCCC1)Nc1nc2ccc(Cl)cc2s1 [Example 21, 2-(S)-(6-Chloro-benzothiazol-2-ylamino)-3-cyclohexyl-N-[2-(4-fluoro-phenylamino)-ethyl]-propionamide] | < 1000 nM | + (+, >10) | ++ (++, >100) | + (+, >10)
15 | Cc1sc(N[C@@H](CC2CCCCC2)C(=O)NCCN2CCc3cc(F)ccc32)nc1-c1ccccc1 [Example 20, (S)-3-Cyclohexyl-N-[2-(5-fluoro-2,3-dihydro-indol-1-yl)-ethyl]-2-(5-methyl-4-phenyl-thiazol-2-ylamino)-propionamide] | < 10000 nM | – | + (+, >10) | + (+, >10)
16 | COC(=O)c1ccc2nc(N[C@@H](CC3CCCCC3)C(=O)N[C@@H](C)CNc3ccc(F)cc3)oc2c1 [Example 24, (S,S)2-{2-Cyclohexyl-1-[2-(4-fluoro-phenylamino)-1-methyl-ethylcarbamoyl]-ethylamino}-benzooxazole-6-carboxylic acid methyl ester] | < 100 nM | – | – | –
17 | CC(C)(C)C[C@H](Nc1nccc2ccccc12)C(=O)NCCN1CCc2cc(F)ccc21 [Example 19, 2-(S)-(Isoquinolin-1-ylamino)-4,4-dimethyl-pentanoic acid [2-(5-fluoro-2,3-dihydro-indol-1-yl)-ethyl]-amide] | < 100 nM | + (+, >10) | +++ (+++, >1000) | –
